The values that follow come from US20140135270A1, “MACROCYCLIC COMPOUNDS FOR INHIBITION OF INHIBITORS OF APOPTOSIS” (Ensemble Therapeutics Corp., priority 2012, published 2014).

In test [1] the target is T1, His-BIR2-3 (125-356, C202A/C213G, XIAP) (Homo sapiens, UniProt P98170, C202A/C213G).
T1 construct: additions of His-BIR2-3 (125-356, C202A/C213G, XIAP), fluorescein labeled dimeric SMAC peptide
The test is described as follows: XIAP-BIR2-3 Dimeric SMAC Peptide Homogeneous Time Resolved Fluorescence (HTRF) Assay. The test is classed as binding. The settings on record: fluorescein labeled dimeric SMAC peptide. On the technique in general: TR-FRET usually uses a lanthanide donor and a delayed reading to cut background.

Test [2] concerns the target T2, His-BIR3 (241-356, XIAP) (Homo sapiens, UniProt P98170).
T2 construct: additions of His-BIR3 (241-356, XIAP), fluorescein labeled SMAC peptide
Kind of test: XIAP-BIR3/SMAC Homogeneous Time Resolved Fluorescence (HTRF) Assay. The settings on record: fluorescein labeled SMAC peptide. It is filed as binding.

T2 sequence (P98170 241-356): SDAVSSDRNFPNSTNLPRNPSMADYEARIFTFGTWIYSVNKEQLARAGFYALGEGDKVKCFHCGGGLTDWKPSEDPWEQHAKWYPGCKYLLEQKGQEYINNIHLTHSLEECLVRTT
T1 sequence (P98170 125-356 C202A/C213G): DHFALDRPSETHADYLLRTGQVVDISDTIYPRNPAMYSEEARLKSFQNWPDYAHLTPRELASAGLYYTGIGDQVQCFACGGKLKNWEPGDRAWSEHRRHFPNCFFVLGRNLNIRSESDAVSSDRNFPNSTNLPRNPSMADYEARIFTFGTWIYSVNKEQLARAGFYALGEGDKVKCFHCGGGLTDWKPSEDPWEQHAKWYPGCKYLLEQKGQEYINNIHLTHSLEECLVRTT

Take `CN[C@@H](C)C(=O)N[C@H](C(=O)N1C[C@@H]2C[C@H]1C(=O)N[C@@H](C)C(=O)N[C@H](C(=O)O)Cc1ccc(cc1)C(=O)N[C@H]1C[C@@H](C(=O)N[C@@H](Cc3ccc4ccccc4c3)C(=O)N[C@H](C(=O)O)Cc3ccc(cc3)OC/C=C/CO2)N(C(=O)[C@@H](NC(=O)[C@H](C)NC)C(C)(C)C)C1)C(C)(C)C` [Example 44]: the values for the IC50 in test [1] and in test [2] were 3.5 nM and 111 nM, respectively.

As for `CN[C@@H](C)C(=O)N[C@H](C(=O)N1C[C@@H]2C[C@H]1C(=O)N[C@@H](Cc1ccc3ccccc3c1)C(=O)N[C@H](C(=O)O)Cc1ccc(cc1)C(=O)N[C@H]1C[C@@H](C(=O)N[C@@H](Cc3ccc4ccccc4c3)C(=O)N[C@H](C(=O)O)Cc3ccc(cc3)OC/C=C/CO2)N(C(=O)[C@@H](NC(=O)[C@H](C)NC)C(C)(C)C)C1)C1CCOCC1` [Example 66], the IC50 (commonly the concentration that gives 50% inhibition) was 1.3 nM in test [1] and 5.2 nM in test [2].

On to `CN[C@@H](C)C(=O)N[C@H](C(=O)N1C[C@@H]2C[C@H]1C(=O)NC(Cc1ccc3ccccc3c1)C(=O)N[C@H](C(=O)NS(=O)(=O)C1CC1)Cc1ccc(cc1)OCCCC[C@H]1C[C@@H](C(=O)N[C@@H](Cc3ccc4ccccc4c3)C(=O)N[C@H](C(=O)NS(=O)(=O)C3CC3)Cc3ccc(cc3)OCc3cn2nn3)N(C(=O)[C@@H](NC(=O)[C@H](C)NC)C(C)(C)C)C1)C(C)(C)C` (stereo partly shown) [Example 100], for which the IC50 in test [1] stood at 4.2 nM; in test [2], 4.6 nM.

As to `CCCCCCCCCCCCS(=O)(=O)NC(=O)[C@@H]1Cc2ccc(cc2)OC/C=C/C[C@H]2C[C@@H](C(=O)N[C@@H](Cc3ccc4ccccc4c3)C(=O)N[C@H](C(=O)O)Cc3ccc(cc3)OCc3cn(nn3)[C@H]3C[C@@H](C(=O)N[C@@H](Cc4ccc5ccccc5c4)C(=O)N1)N(C(=O)[C@@H](NC(=O)[C@H](C)NC)C(C)(C)C)C3)N(C(=O)[C@@H](NC(=O)[C@H](C)NC)C(C)(C)C)C2` [Example 23], the figures for the IC50 in test [1] and in test [2] were 6.9 nM and 34.2 nM, respectively.

For the compound `CN[C@@H](C)C(=O)NC(C(=O)N1C[C@@H]2C[C@H]1C(=O)N[C@@H](Cc1ccc3ccccc3c1)C(=O)N[C@H](C(=O)O)Cc1ccc(cc1)OC/C=C/C(=O)N1CCN(C(=O)[C@@H](NC(=O)[C@H](C)NC)C(C)(C)C)[C@@H](C1)C(=O)N[C@@H](Cc1ccc3ccccc3c1)C(=O)N[C@H](C(=O)O)CCC(=O)N2)C(C)(C)C` (stereo partly shown) [Example 79], the IC50 stood at 5.6 nM in test [1] and 44.3 nM in test [2].

As for `CNC(C)C(=O)NC(C(=O)N1CC2CC1C(=O)NC(Cc1ccc3ccccc3c1)C(=O)NC(C(=O)O)Cc1ccc(cc1)OCc1cn(nn1)C1CC(C(=O)NC(Cc3ccc4ccccc4c3)C(=O)NC(C(=O)O)Cc3ccc(cc3)OCC=CCO2)N(C(=O)C(NC(=O)C(C)NC)C(C)(C)C)C1)C(C)(C)C` (stereo not shown) [Example 4], the concentration for half-maximal inhibition (IC50) in test [1] turned out to be 0.7 nM; in test [2] it was 4.1 nM.

Regarding `CN[C@@H](C)C(=O)N[C@H](C(=O)N1C[C@@H]2C[C@H]1C(=O)N[C@@H](Cc1ccc3ccccc3c1)C(=O)N[C@H](C(=O)O)Cc1ccc(cc1)OC/C=C/CO[C@H]1C[C@@H](C(=O)N[C@@H](C(c3ccccc3)c3ccccc3)C(=O)N[C@H](C(=O)O)Cc3ccc(cc3)C(=O)N2)N(C(=O)[C@@H](NC(=O)[C@H](C)NC)C(C)(C)C)C1)C(C)(C)C` [Example 62], the IC50 came to 8 nM in test [1] and 60.2 nM in test [2].

As to `CN[C@@H](C)C(=O)N[C@H](C(=O)N1C[C@@H]2C[C@H]1C(=O)N[C@@H](Cc1ccc3ccccc3c1)C(=O)N[C@H](C(=O)O)Cc1ccc(cc1)C(=O)N[C@H]1C[C@@H](C(=O)N[C@@H](Cc3ccc4ccccc4c3)C(=O)N[C@H](C(=O)O)Cc3ccc(cc3)OC/C=C/CO2)N(C(=O)[C@@H](NC(=O)[C@H](C)NC)C(C)(C)C)C1)C1CCCCC1` [Example 71], the IC50 in test [1] turned out to be 3.7 nM; in test [2], 27.9 nM.

Take `CN[C@@H](C)C(=O)N[C@@H](CC(=O)O)C(=O)N1C[C@@H]2C[C@H]1C(=O)N[C@@H](Cc1ccc3ccccc3c1)C(=O)N[C@H](C(=O)O)Cc1ccc(cc1)C(=O)N[C@H]1C[C@@H](C(=O)N[C@@H](Cc3ccc4ccccc4c3)C(=O)N[C@H](C(=O)O)Cc3ccc(cc3)OC/C=C/CO2)N(C(=O)[C@@H](NC(=O)[C@H](C)NC)C(C)(C)C)C1` [Example 64]: the IC50 was found to be 5.9 nM in test [1] and 36.6 nM in test [2].

Turning to `CN[C@@H](C)C(=O)N[C@H](C(=O)N1C[C@@H]2C[C@H]1C(=O)N[C@@H](Cc1ccc3ccccc3c1)C(=O)N[C@H](C(=O)O)Cc1ccc(cc1)OC/C=C/CO[C@H]1C[C@@H](C(=O)N[C@@H](Cc3ccc(-c4ccc(O)cc4)cc3)C(=O)N[C@H](C(=O)NS(=O)(=O)C3CC3)Cc3ccc(cc3)OCc3cn2nn3)N(C(=O)[C@@H](NC(=O)[C@H](C)NC)C(C)(C)C)C1)C(C)(C)C` [Example 113], the IC50 in test [1] is 7.1 nM; in test [2], 13.5 nM.

Regarding `CN[C@@H](C)C(=O)N[C@@H](Cc1ccccc1)C(=O)N1C[C@@H]2C[C@H]1C(=O)N[C@@H](Cc1ccc3ccccc3c1)C(=O)N[C@H](C(=O)O)Cc1ccc(cc1)C(=O)N[C@H]1C[C@@H](C(=O)N[C@@H](Cc3ccc4ccccc4c3)C(=O)N[C@H](C(=O)O)Cc3ccc(cc3)OC/C=C/CO2)N(C(=O)[C@@H](NC(=O)[C@H](C)NC)C(C)(C)C)C1` [Example 70], the IC50 in test [1] was found to be 2 nM; in test [2], 9.3 nM.

Regarding `CN[C@@H](C)C(=O)N[C@H](C(=O)N1CC[C@@H]2OC/C=C/COc3ccc(cc3)C[C@@H](C(=O)O)NC(=O)[C@H](Cc3ccc4ccccc4c3)NC(=O)[C@@H]3[C@@H](CCN3C(=O)[C@@H](NC(=O)[C@H](C)NC)C(C)(C)C)OCc3cn(nn3)CCC[C@@H](C(=O)O)NC(=O)[C@H](Cc3ccc4ccccc4c3)NC(=O)[C@H]21)C(C)(C)C` [Example 11], the values for the IC50 in test [1] and in test [2] were 2.3 nM and 0.8 nM, respectively.

Turning to `CN[C@@H](C)C(=O)N[C@H](C(=O)N1C[C@@H]2C[C@H]1C(=O)N[C@@H](Cc1ccc3ccccc3c1)C(=O)N[C@H](C(=O)O)Cc1ccc(cc1)OCCCC[C@H]1C[C@@H](C(=O)N[C@@H](Cc3ccc4ccccc4c3)C(=O)N[C@H](C(=O)NS(C)(=O)=O)Cc3ccc(cc3)OCc3cn2nn3)N(C(=O)[C@@H](NC(=O)[C@H](C)NC)C(C)(C)C)C1)C(C)(C)C` [Example 2], the values for the IC50 in test [1] and in test [2] were 0.8 nM and 2.3 nM, respectively.

As for `CN[C@@H](C)C(=O)N[C@@H](C)C(=O)N1C[C@@H]2C[C@H]1C(=O)N[C@@H](Cc1ccc3ccccc3c1)C(=O)N[C@H](C(=O)O)CCC(=O)N[C@H]1C[C@@H](C(=O)N[C@@H](Cc3ccc4ccccc4c3)C(=O)N[C@H](C(=O)O)Cc3ccc(cc3)OC/C=C/CO2)N(C(=O)[C@@H](NC(=O)[C@H](C)NC)C(C)(C)C)C1` [Example 55], the IC50 is 108 nM in test [1] and 252 nM in test [2].

Consider `CN[C@@H](C)C(=O)N[C@H](C(=O)N1C[C@@H]2C[C@H]1C(=O)N[C@@H](Cc1ccc3ccccc3c1)C(=O)N[C@H](C(=O)O)Cc1ccc(cc1)OC/C=C/CO[C@H]1C[C@@H](C(=O)N[C@@H](Cc3ccc(-c4cccc(F)c4)cc3)C(=O)N[C@H](C(=O)NS(=O)(=O)C3CC3)Cc3ccc(cc3)OCc3cn2nn3)N(C(=O)[C@@H](NC(=O)[C@H](C)NC)C(C)(C)C)C1)C(C)(C)C` [Example 115], for which the IC50 worked out at 11.1 nM in test [1] and 18.1 nM in test [2].

In the case of `CN[C@@H](C)C(=O)N[C@H](C(=O)N1C[C@H]2C/C=C/COc3ccc(cc3)C[C@@H](C(=O)NS(C)(=O)=O)NC(=O)[C@H](Cc3ccc4ccccc4c3)NC(=O)[C@@H]3C[C@@H](CN3C(=O)[C@@H](NC(=O)[C@H](C)NC)C(C)(C)C)n3cc(nn3)COc3ccc(cc3)C[C@@H](C(=O)O)NC(=O)[C@H](Cc3ccc4ccccc4c3)NC(=O)[C@@H]1C2)C(C)(C)C` [Example 26], the concentration for half-maximal inhibition (IC50) in test [1] was 0.9 nM; in test [2] it was 3.9 nM.

As for `CN[C@@H](C)C(=O)N[C@H](C(=O)N[C@H]1C/C=C/COc2ccc(cc2)C[C@H](C(=O)O)NC(=O)[C@H](Cc2ccc3ccccc3c2)NC(=O)[C@@H]2[C@@H](CCN2C(=O)[C@@H](NC(=O)[C@H](C)NC)C(C)(C)C)OCc2cn(nn2)CC[C@@H](C(=O)OC)NC(=O)[C@H](Cc2ccc3ccccc3c2)NC1=O)C(C)(C)C` [Example 21], the IC50 was 2.6 nM in test [1] and 1.8 nM in test [2].

Turning to `CN[C@@H](C)C(=O)N[C@H](C(=O)N1C[C@@H]2C[C@H]1C(=O)N[C@@H](Cc1ccc3ccccc3c1)C(=O)N[C@H](C(=O)O)Cc1ccc(cc1)C(=O)N[C@H]1C[C@@H](C(=O)N[C@@H](Cc3ccc4ccccc4c3)C(=O)N[C@H](C(=O)O)Cc3ccc(cc3)OC/C=C/CO2)N(C(=O)[C@@H](NC(=O)[C@H](C)NC)C(C)(C)C)C1)C(C)C` [Example 75], the figures for the IC50 in test [1] and in test [2] were 1.7 nM and 9.7 nM, respectively.

As to `CC[C@H](NC(=O)[C@H](C)NC)C(=O)N1C[C@@H]2C[C@H]1C(=O)N[C@@H](Cc1ccc3ccccc3c1)C(=O)N[C@H](C(=O)NS(=O)(=O)C1CC1)Cc1ccc(cc1)OCc1cn(nn1)[C@H]1C[C@@H](C(=O)N[C@@H](Cc3ccc4ccccc4c3)C(=O)N[C@H](C(=O)O)Cc3ccc(cc3)OC/C=C/CO2)N(C(=O)[C@@H](NC(=O)[C@H](C)NC)C(C)(C)C)C1` [Example 107], the IC50 was found to be 1.7 nM in test [1] and 26.1 nM in test [2].

`CN[C@@H](C)C(=O)N[C@H](C(=O)N1C[C@H]2C/C=C/COc3ccc(cc3)C[C@@H](C(=O)NS(=O)(=O)C3CC3)NC(=O)[C@H](Cc3ccc4ccccc4c3)NC(=O)[C@@H]3C[C@H](C/C=C/COc4ccc(cc4)C[C@@H](C(=O)O)NC(=O)[C@H](Cc4ccc5ccccc5c4)NC(=O)[C@@H]1C2)CN3C(=O)[C@@H](NC(=O)[C@H](C)NC)C(C)(C)C)C(C)(C)C` [Example 88]: the results for the IC50 in test [1] and in test [2] were 1.7 nM and 3.9 nM, respectively.
